This note sets out measurements from patent publication US20240279237A1, “FUSED BICYCLIC HETEROARYL COMPOUNDS USEFUL AS NLRP3 INHIBITORS” (Hoffmann-La Roche Inc., priority 2021, published 2024).

The target in this experiment is T1, NLRP3 (Homo sapiens, UniProt Q96P20).
T1 construct: Seed THP-1 cells (25,000 cells/well) containing 1.0 μg/ml LPS in 40 μl of RPMI medium; host or cells: THP-1 cells
As to the kind of experiment: THP-1 Cells Pyroptosis Assay. Conditions: THP-1 cells with 1.0 μg/ml LPS; compound 3 hours; nigericin 5 μM 1 hr; resazurin readout. It counts as cell-based. In outline:
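THP-1 cells in serum-free RPMI primed with LPS (1 μg/ml FAC), incubated with compound 3 h at 37 °C, then nigericin (5 μM FAC) for 1 h. Supernatant removed after spin; viability read by resazurin (100 μM FAC) reduction after a further 1-2 h at 37 °C.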
On the technique in general: Resazurin is reduced to fluorescent resorufin, in cell work by metabolically active cells.

T1 sequence (Q96P20 whole entry): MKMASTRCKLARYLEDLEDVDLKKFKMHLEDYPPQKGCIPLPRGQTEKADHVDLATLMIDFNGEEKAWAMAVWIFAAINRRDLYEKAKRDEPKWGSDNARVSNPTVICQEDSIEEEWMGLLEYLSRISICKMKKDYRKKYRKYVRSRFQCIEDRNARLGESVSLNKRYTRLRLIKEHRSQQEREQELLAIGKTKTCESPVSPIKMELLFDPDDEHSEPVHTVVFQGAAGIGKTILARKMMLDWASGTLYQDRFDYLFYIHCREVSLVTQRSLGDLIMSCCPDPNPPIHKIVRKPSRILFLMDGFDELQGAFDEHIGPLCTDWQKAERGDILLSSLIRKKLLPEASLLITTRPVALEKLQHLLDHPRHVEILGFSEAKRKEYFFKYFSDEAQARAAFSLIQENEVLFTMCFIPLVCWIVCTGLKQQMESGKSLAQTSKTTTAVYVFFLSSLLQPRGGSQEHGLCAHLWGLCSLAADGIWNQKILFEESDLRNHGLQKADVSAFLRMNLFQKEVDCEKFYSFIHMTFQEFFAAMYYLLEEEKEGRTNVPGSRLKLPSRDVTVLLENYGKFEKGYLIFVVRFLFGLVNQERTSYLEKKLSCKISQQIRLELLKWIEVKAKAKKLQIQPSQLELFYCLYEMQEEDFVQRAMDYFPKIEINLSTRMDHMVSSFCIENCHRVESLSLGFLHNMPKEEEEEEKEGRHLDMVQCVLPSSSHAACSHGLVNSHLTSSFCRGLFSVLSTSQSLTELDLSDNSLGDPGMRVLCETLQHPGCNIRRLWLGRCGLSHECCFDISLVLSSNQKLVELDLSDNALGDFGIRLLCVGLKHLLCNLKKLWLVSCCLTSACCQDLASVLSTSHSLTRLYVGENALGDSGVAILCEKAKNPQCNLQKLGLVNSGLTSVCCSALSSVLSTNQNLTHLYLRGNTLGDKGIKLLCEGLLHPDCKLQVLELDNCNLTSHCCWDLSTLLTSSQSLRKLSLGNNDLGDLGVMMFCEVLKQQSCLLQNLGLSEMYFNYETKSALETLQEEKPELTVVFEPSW

On to `Cc1cc(C)c(-c2ccc3oc(N[C@@H]4CCCN(C)C4)nc3n2)c(O)c1` [Example 128, 3,5-Dimethyl-2-[2-[[(3R)-1-methyl-3-piperidyl]amino]oxazolo[4,5-b]pyridin-5-yl]phenol;2,2,2-trifluoroacetic acid], for which the IC50 amounted to 1.8 nM.

Turning to `CCN1CCC[C@@H](Nc2nc3nc(-c4c(O)cc(F)cc4Cl)ccc3o2)C1` [Example 129, 3-Chloro-2-[2-[[(3R)-1-ethyl-3-piperidyl]amino]oxazolo[4,5-b]pyridin-5-yl]-5-fluoro-phenol;2,2,2-trifluoroacetic acid], half-maximal inhibition (IC50) required 1.7 nM.

Consider `CCN1CCC[C@@H](Nc2nc3nc(-c4c(C)cc(OC(F)F)cc4O)ccc3o2)C1` [Example 130, 5-(Difluoromethoxy)-2-[2-[[(3R)-1-ethyl-3-piperidyl]amino]oxazolo[4,5-b]pyridin-5-yl]-3-methyl-phenol;2,2,2-trifluoroacetic acid], for which it took 1.9 nM to reach half-maximal inhibition (IC50).

Compound `CCN1CCC(Nc2nc3nc(-c4c(C)cc(C(F)(F)F)cc4O)ccc3o2)C1` (centres unmarked) [Example 131, 2-[2-[(1-Ethylpyrrolidin-3-yl)amino]oxazolo[4,5-b]pyridin-5-yl]-3-methyl-5-(trifluoromethyl)phenol] gave an IC50 of 9.6 nM.

With `CCN1CCC[C@@H](Nc2nc3nc(-c4c(O)cc(Cl)cc4Cl)ccc3o2)C1` [Example 132, 3,5-Dichloro-2-[2-[[(3R)-1-ethyl-3-piperidyl]amino]oxazolo[4,5-b]pyridin-5-yl]phenol;2,2,2-trifluoroacetic acid], the midpoint of inhibition, the IC50, lay at 0.7 nM.

As to `CCN1CCC[C@@H](Nc2nc3nc(-c4ccc(C(F)(F)F)cc4O)c(F)cc3[nH]2)C1` [Example 133, 2-[2-[[(3R)-1-Ethyl-3-piperidyl]amino]-6-fluoro-1H-imidazo[4,5-b]pyridin-5-yl]-5-(trifluoromethyl)phenol], inhibition was half-maximal at 80.3 nM (IC50).

Consider `CCN1C[C@@H](O)C[C@@H](Nc2nc3nc(-c4c(C)cc(Cl)cc4O)ccc3o2)C1` [Example 134, (3S,5R)-5-[[5-(4-Chloro-2-hydroxy-6-methyl-phenyl)oxazolo[4,5-b]pyridin-2-yl]amino]-1-ethyl-piperidin-3-ol], for which the half-maximal inhibitory concentration (IC50) is 1.9 nM.

On to `CNC1(c2nc3nc(-c4c(C)cc(C(F)(F)F)cc4O)ccc3o2)CCOCC1` [Example 135, 3-Methyl-2-[2-[4-(methylamino)tetrahydropyran-4-yl]oxazolo[4,5-b]pyridin-5-yl]-5-(trifluoromethyl)phenol;2,2,2-trifluoroacetic acid], for which half-maximal inhibition (IC50) was put at 505 nM.

`CCN1CCC[C@@H](Nc2nc3ccc(-c4c(C)cc(Cl)cc4O)nc3[nH]2)C1` [Example 136, 5-Chloro-2-[2-[[(3R)-1-ethyl-3-piperidyl]amino]-3H-imidazo[4,5-b]pyridin-5-yl]-3-methyl-phenol]: half-maximal inhibition (IC50) was put at 1 nM.

`CCN1CCC[C@@H](Nc2nc3nc(-c4c(C)cc(OC(F)(F)F)cc4O)ccc3o2)C1` [Example 137, 2-[2-[[(3R)-1-Ethyl-3-piperidyl]amino]oxazolo[4,5-b]pyridin-5-yl]-3-methyl-5-(trifluoromethoxy)phenol;2,2,2-trifluoroacetic acid] gave an IC50 of 4.8 nM.

On to `CCN1CCCC(c2nc3nc(-c4c(C)cc(C(F)(F)F)cc4O)ccc3o2)C1` (centres unmarked) [Example 138, 2-[2-(1-Ethyl-3-piperidyl)oxazolo[4,5-b]pyridin-5-yl]-3-methyl-5-(trifluoromethyl)phenol], for which the IC50 was determined as 234 nM.

Broadly, the IC50 is the concentration at which inhibition is half-maximal. Read a high IC50 as a need for much substance.
